Assay results published in patent US20260184675A1, “CHIRAL ISOMERIC SULFITE COMPOUND AND APPLICATION THEREOF” (Chengdu Hanova BioSciences Co., Ltd, priority 2024, published 2026).

Experiments:
[1] = tested on: eggs of Tetranychus urticae; assay: Effect on hatching of eggs of Tetranychus urticae, leaf disc method; format: in vivo; settings: 5 ppm; for Hatching rate (%): 5 days after insecticide delivery
Procedure: (§1) • (1) Preparation of leaf discs containing eggs: 20 female adult mites of Tetranychus cinnabarinus were transferred onto leaf discs of Vicia faba with a diameter of 2.0 cm (with wetted filter paper at the bottom), then covered it with a lidded culture dish and cultivated under moisturizing conditions, the adult mites were removed within 36 hours and microscopic examination and counting were performed on leaf discs containing eggs. • (2) Investigation of egg population base: Before pesticide soaking, a microscopic examination was conducted on the egg basic number of each leaf disc, with 2 replicates set for each treatment. • (3) Pesticide soaking treatment: The leaf butterflies loaded with mite eggs were soaked in clear water and sulfite compounds for 10 seconds, respectively, then taken out and cultivated under moisturizing conditions. Each treatment should be repeated for no less than 3 times. • (4) Cultivation and observation: The […] were cultivated under normal conditions. Five days after insecticide delivery, the hatching status of mite eggs was investigated. • Note: The temperature and humidity conditions of the constant temperature and humidity incubator after the treatment should be controlled so as to avoid excessive temperature differences, which may cause generation and dripping of condensate water in the culture dish, resulting in abnormal death of eggs due to soaking in water; it is also necessary to ensure sufficient strong ambient light, without directing irradiating the leaves. • (5) Survey of Results: The experimental materials of each treatment group were regularly hydrated and moisturized, and the hatching of eggs was observed. On the 7th day after insecticide delivery, the number of hatched eggs for each treatment was recorded, and the survey of results was recorded in the original notebook. According to the experimental requirements and characteristics of agents, the survey time can be shortened or extended.
(§2) • 1) Surveying and recording the number of hatched eggs for each treatment. • 2) Photographing and recording whether there was any pesticide damage to the leaf discs of Vicia faba. • 3) Recording the developmental status of experimental mite eggs, behavior status of nymph mites, including abnormal phenomena such as delayed or stopped development of mite eggs, difficulty in breaking hull for nymph mites, or painful struggles after hatching, etc. • (6) Calculation method: Based on the survey data, the prevention and control effect of each treatment was calculated according to the following formula, and the calculation results were kept to two decimal places.
(§3) This test adopted the method in Test Example 1 of technical section, mainly used leaf disc method to explore the inhibitory effect on hatching of eggs of Tetranychus urticae by compounds 1-(S,S), 1-(S,R), 1-(R,R), 1-(R,S), 1′-(S,S), 1′-(S,R), 1′-(R,R), 1′-(R,S), compound 1, compound 1′, S-10, R-10, S-10′, R-10′, compound 10, compound 10′, compound 19-(S,S), 19-(S,R), 19-(R,R), 19-(R,S), 19′-(S,S), 19′-(S,R), 19′-(R,R), 19′-(R,S), compound 19, and compound 19′. The concentration of all compounds was 5 ppm.

eggs of Thrips = assay: Effect on hatching of eggs of Thrips, leaf disc method; format: in vivo; settings: 100 ppm; for Hatching rate (%): 5 days after insecticide delivery
Procedure: as §1, §2
as §3, with “Thrips” for “Tetranychus urticae”, “by” for “by compounds”, “100” for “5”

Magnaporthe grisea = format: cell-based; settings: 100 ppm; for Average antifungal rate (%) / Antifungal rate of Magnaporthe grisea (%), Replicate 1 / Antifungal rate of Magnaporthe grisea (%), Replicate 2 / Antifungal rate of Magnaporthe grisea (%), Replicate 3: 96-well plate; for Average antifungal rate (%): average of 3 replicates
[2] = tested on: pest eggs of Tetranychus cinnabarinus; assay: Effect on hatching of pest eggs of Tetranychus cinnabarinus, leaf disc method; format: in vivo; settings: for Hatching rate (%): 7 days after insecticide delivery
Procedure: as §1, with “extended. • 1) Surveying and recording the number of hatched eggs for each treatment. • 2) Photographing and recording whether there was any pesticide damage to the leaf discs of Vicia faba. • 3) Recording the developmental status of experimental mite eggs, behavior status of nymph mites, including abnormal phenomena such as delayed or stopped development of mite eggs, difficulty in breaking hull for nymph mites, or painful struggles after hatching, etc. • (6) Calculation method: Based on the survey data, the prevention and control effect of each treatment was calculated according to the following formula, and the calculation results were kept to two decimal places. [formula] [formula] [table]” for “extended.”

[3] = Replicate 1, listed as 1′-(S, S)
[4] = Replicate 2, listed as 1′-(S, S)
[5] = Replicate 3, listed as 1′-(S, S)
[6] = Replicate 1, listed as 1′-(S, R)
[7] = Replicate 2, listed as 1′-(S, R)
[8] = Replicate 3, listed as 1′-(S, R)

Row | Structure (SMILES) | inhibitory rate against Magnaporthe grisea (in words) (Magnaporthe grisea) | Average antifungal rate (%) (Magnaporthe grisea) | Antifungal rate of Magnaporthe grisea (%), Replicate 1 (Magnaporthe grisea) | Antifungal rate of Magnaporthe grisea (%), Replicate 2 (Magnaporthe grisea) | Antifungal rate of Magnaporthe grisea (%), Replicate 3 (Magnaporthe grisea) | Hatching rate (%) ([2]; 0.25 mg/L, Replicate 1) | Hatching rate (%) ([2]; 0.25 mg/L, Replicate 2) | Number of hatched larvae 7 days after insecticide delivery ([2]; 0.25 mg/L, Replicate 1) | Number of hatched larvae 7 days after insecticide delivery ([2]; 0.25 mg/L, Replicate 2) | Hatching rate (%) ([2]; 0.5 mg/L, Replicate 1) | Hatching rate (%) ([2]; 0.5 mg/L, Replicate 2) | Number of hatched larvae 7 days after insecticide delivery ([2]; 0.5 mg/L, Replicate 1) | Number of hatched larvae 7 days after insecticide delivery ([2]; 0.5 mg/L, Replicate 2) | Hatching rate (%) ([2]; 1 mg/L, Replicate 1) | Hatching rate (%) ([2]; 1 mg/L, Replicate 2) | Number of hatched larvae 7 days after insecticide delivery ([2]; 1 mg/L, Replicate 1) | Number of hatched larvae 7 days after insecticide delivery ([2]; 1 mg/L, Replicate 2) | other results
1 | CC(COc1ccc(Cl)cc1Cl)OS(=O)OCCF [1′-(S,S)] | strong inhibitory rate | 81.44% | 84.82% | 83.06% | 76.44% | 64.58% | 69.57% | 17 | 14 | 27.59% | 12.00% | 42 | 66 | 16.36% | 14.63% | 46 | 35 | Hatching rate (%) [1, 3]: 20.63%; Hatching rate (%) [1, 4]: 16.22%; Number of hatched larvae 5 days after insecticide delivery [1, 3]: 13; Number of hatched larvae 5 days after insecticide delivery [1, 4]: 12; Hatching rate (%) (eggs of Thrips; [3]): 14.10%; Hatching rate (%) (eggs of Thrips; [4]): 14.63%; Hatching rate (%) (eggs of Thrips; [5]): 16.04%; Number of hatched larvae 5 days after insecticide delivery (eggs of Thrips; [3]): 11; Number of hatched larvae 5 days after insecticide delivery (eggs of Thrips; [4]): 18; Number of hatched larvae 5 days after insecticide delivery (eggs of Thrips; [5]): 17
2 | CC(COc1ccc(Cl)cc1Cl)OS(=O)OCCF [1′-(S,R)] | strong inhibitory rate | 99.22% | 95.80% | 102.01% | 99.85% | 42.86% | 44.83% | 28 | 32 | 8.89% | 3.23% | 41 | 60 | 0.00% | 0.00% | 69 | 78 | inhibitory activity on the hatching of eggs of Tetranychus urticae (in words) [1]: strong inhibitory activities; Hatching rate (%) [1, 6]: 0.00%; Hatching rate (%) [1, 7]: 0.00%; Number of hatched larvae 5 days after insecticide delivery [1, 6]: 0; Number of hatched larvae 5 days after insecticide delivery [1, 7]: 0; inhibitory activity on the hatching of eggs of Thrips (in words) (eggs of Thrips): strong inhibitory activities; Hatching rate (%) (eggs of Thrips; [6]): 0.00%; Hatching rate (%) (eggs of Thrips; [7]): 0.00%; Hatching rate (%) (eggs of Thrips; [8]): 0.00%; Number of hatched larvae 5 days after insecticide delivery (eggs of Thrips; [6]): 0; Number of hatched larvae 5 days after insecticide delivery (eggs of Thrips; [7]): 0; Number of hatched larvae 5 days after insecticide delivery (eggs of Thrips; [8]): 0; inhibitory effect on the hatching of pest eggs of Tetranychus cinnabarinus (in words) ([2]; 1 ppm): excellent inhibitory effects
3 | CC(C)(COS(=O)OCCF)Oc1ccc(Cl)cc1Cl (stereo not drawn) [R-10′] | strong inhibitory rate | 82.60% | 82.71% | 81.95% | 83.14% | 74.07% | 76.79% | 21 | 13 | 42.86% | 45.07% | 36 | 39 | 8.47% | 7.46% | 54 | 62 | Hatching rate (%) ([1]; Replicate 1): 17.72%; Hatching rate (%) ([1]; Replicate 2): 16.67%; Number of hatched larvae 5 days after insecticide delivery ([1]; Replicate 1): 14; Number of hatched larvae 5 days after insecticide delivery ([1]; Replicate 2): 16; Hatching rate (%) (eggs of Thrips; Replicate 1): 13.93%; Hatching rate (%) (eggs of Thrips; Replicate 2): 15.05%; Hatching rate (%) (eggs of Thrips; Replicate 3): 13.97%; Number of hatched larvae 5 days after insecticide delivery (eggs of Thrips; Replicate 1): 17; Number of hatched larvae 5 days after insecticide delivery (eggs of Thrips; Replicate 2): 14; Number of hatched larvae 5 days after insecticide delivery (eggs of Thrips; Replicate 3): 19
